These results are taken from article PMC2116148 (The Journal of Cell Biology, 1990).

Holding throughout (format): cell-based, mouse
Test [1] concerns M4 melanoma cells. Conditions: filters coated with type IV collagen; soluble control peptide (Fig. 3c).
Test [2] deals with K1735 M4 murine melanoma cell line. The test can be described thus: Cell adhesion and spreading assay on peptide- or protein-coated Immulon 1 plates.
Test [3] relates to M4 melanoma cells. Conditions: even at the highest concentrations tested (Fig. 7, up to 500 μg/ml).

With GVPGKDGQAGQPGQP(Y) [peptide 17], the “effect on type IV collagen-mediated cell motility” value in test [1] is “no effect”. Also, the “promotion of melanoma cell adhesion or spreading” value in test [2] (control peptide, coated surface) is recorded as “does not promote”.

For GVKGDKGNAGWAGAA(Y) [peptide IV-H1A], the “melanoma cell spreading compared with peptide IV-H1” value in test [2] (all peptide concentrations (5-500 μg/ml), all time points (20-90 min) (Fig. 6)) is given as “decreased ability to spread”. In addition, in test [2] (coated surfaces, up to 500 μg/ml (Fig. 5)), the “melanoma cell adhesion on alanyl-substituted peptide compared with peptide IV-H1” value is on record as “nearly the same extent”. Also, the “cell motility through coated filters” value in test [3] is “not observed”.
